Read-outs that look alike come from different tables or passages of the source.

Assay [1] has as its system motor neurons (MNs) from spinal cord explants. Kind of assay: Axonal transport assay of Qdot-BDNF in microfluidic chamber. In kind it is cell-based, mice. To be noted: for velocity of BDNF axonal transport: S1R−/− (S1R KO) MNs. The source says:
Healthy motor neurons (MN) extend axons over long distances and through varying extracellular microenvironments to form synapses with muscles. The ability of the neuron to maintain this specialized morphology depends on cytoskeletal elements and continuous transport of proteins and organelles to and from the cell body. Cytoskeletal alterations are a major pathway implicated in the pathogenesis of ALS affecting axonal transport, growth and neuromuscular junction (NMJ) function (Eykens and Robberecht, 2015). Alterations in axonal transport are one of the first cellular processes that occur in neurodegenerative disease, including ALS. Axonal transport was evaluated using an in vitro compartmentalized system of microfluidic chambers (MFC) that separates neuronal cell bodies from their axons and synapses, enabling the study of retrograde/anterograde transport by specific monitoring and manipulation of cellular microenvironments (FIG. 1b: Zahavi 2015; Ionescu 2016).
Quantum-Dot labeled BDNF (Qdot BDNF) is retrogradely transported in axons of motor neurons grown from spinal cord explants in a microfluidic chamber (MFC). A MFC was used to analyze Qdot BDNF axonal transport. Axonal transport of BDNF in the SOD1 model (SOD1G93A) for ALS has been studied (Bilsland 2010; Perlson 2009; De Vos 2007). The effect of pridopidine on transport of Qdot BDNF along the axons of motor neurons was assessed in spinal cord explants from E12.5 SOD1 G93A and WT littermate mice (LM). Experimental workflow for the axonal transport assay (from left to right, FIG. 1a): SOD1G93A or wild Type (LM) spinal cord explants were plated in the MFC. At about 5 days post plating, axons began to cross over into the distal compartment. On day 6 post plating, an amount of pridopidine was added to both compartments. On day 7, Qdot-BDNF was added to the distal compartment and axonal transport was imaged using a high-resolution spinning-disk confocal microscope. Schematic illustration of microfluidic chamber system (FIG. 1b): Explants planted in the proximal compartment extend axons to the distal compartment, where Qdot-BDNF is applied exclusively prior to visualization.
Spinning disk confocal microscopy was used to track Qdot BDNF along the axons of motor neuron explant cultures. Time lapse images of Qdot-BDNF axonal transport as acquired at 60× magnification (FIG. 1c). Arrowheads point to a single Qdot-BDNF particle that is retrogradely transported (left) towards the cell body. Scale bar: 10 μm. […] Scale bars: horizontal 10 μm: vertical 100 seconds (FIG. 1c).
. Six independent biological repeats, from 6 different cultures were tested so that from each culture and explant with neurons/glia ˜250 BDNF particles were followed along the axons in the grooves. Velocity refers to the movement of a single BDNF particle. The experiment was repeated with MNs from mice in which sigma 1 receptor was genetically deleted (S1R KO or S1R−/−) (Langa, 2003). Ventral spinal cord sections from S1R−/− mice embryos were cultured and plated in the MFC as described above, and the axonal transport of Qdot-BDNF was analyzed.
SOD1G93 and S1R−/− explants with or without pridopidine were compared to littermate controls (LM).
Qdot-BDNF particle tracking was performed on Bitplane Imaris, using the semi-automated spot tracking function. […]; stop duration: speed<0.1 μm/sec for 3 frames. Data were then exported to MATLAB for further analysis of particle transport including Instantaneous Velocities (FIG. 2a) from 6 independent cultures, and Stop count (FIG. 2b).

For assay [2], the system named is ALS patients. To be noted: cited from earlier work.
For assay [3], the system named is MN-myocyte co-culture. The method, then:
Synapse disruption is the earliest cellular compartment disrupted in ALS. To test the ability of pridopidine to affect synapse function in an ALS model, cultures from Experiment 2 were grown for approximately four additional days (day 18), when axons extend into the distal compartment and generate NMJs.
Scale bar: 201 μm. […] To evaluate NMJ function, movies of muscle contraction were acquired at a frame rate of 30 frames per second for 1000 frames (FIG. 5b).
Briefly, contractile activity of muscles in the distal compartment of the MFC, which were overlapped by at least one axon was examined. Muscles were categorized into two groups: ‘Contracting’ or ‘Non-contracting’, depending on their motile activity during the movie. The motility of muscles was validated by generating intensity-over-time plots for each muscle (FIG. 5b). The number of contracting muscle fibers per chamber was divided by the total number of muscle fibers analyzed in the same chamber, yielding the percentage of contracting myotubes as an output for NMJ activity.

Assay [4] has as its system rat striatum. The note with it: transcriptomic analysis; cited from earlier work.
Assay [5] deals with neuroblastoma cell line. The note with it: S1R-dependent (Geva 2016); cited from earlier work.
For assay [6], the system named is motor neuron axons co-cultured with primary myocytes. The note with it: myocytes carrying SOD1G93A mutation, 1 μM.
Protocol: Primary muscle cells from presymptomatic (P60) WT or SOD1G93A mice were cultured. On day 6 primary skeletal myoblasts were cultured in the distal compartment of a MFC. About six days later (day 12), ventral spinal cord explants from WT or SOD1G93A E12.5 mouse embryos that express HB9-GFP (a specific motor neuron marker) were plated in the proximal compartment, followed by application of pridopidine or vehicle to both compartments. Pridopidine was refreshed every other day. Two days post explant plating (day 14), motor axon growth and degeneration were evaluated using live imaging on a spinning disc confocal system. Axonal growth was tracked by imaging every 10 min for 8 hrs. Experiments were repeated three times.
For assay [7], the system named is SOD1G93A mice and WT controls. The note with it: for increase in the muscle fiber diameter: Gastrocnemius, 30 mg/kg s.c. daily. The method, then: NMJ disruption and the subsequent skeletal muscle wasting are two main pathologies of ALS. Effect of pridopidine on muscle fiber atrophy and preservation of NMJs was evaluated in-vivo. Presymptomatic SOD1G93A mice and WT controls (5 weeks old) were treated with either saline, or pridopidine 3 or 30 mg/kg, by daily s.c. administration for 11 weeks. The Gastrocnemius muscles from vehicle or pridopidine-treated (30 mg/kg s.c.) mice were extracted from the SOD1G93A and WT mice at age 16 weeks. Muscle cross-sections were stained with Hematoxylin & Eosin (H& E), and the mean muscle fiber diameter was quantified for each group (FIG. 10a). NMJ preservation was evaluated by confocal imaging of co-localizing pre (NFH+Synapsin-I (green)- and post-synaptic (AchR (BTX; red) markers and counting the number of fully innervated NMJs in gastrocnemius muscles (FIG. 11a).

Assay [8] relates to ERK. The note with it: 30 minutes. The method, then: The ERK pathway promotes numerous cellular functions including proliferation and differentiation. […] Primary MN cultures at 2 DIV were starved overnight in neurotrophin- and serum-free medium (PNB). The following day, cultures were treated for 30 minutes with pridopidine or with BDNF as a positive control.
The subject of assay [9] is SOD1G93A mice. To be noted: 30 mg/kg daily s.c. for 11 weeks. The method, then:
Presymptomatic SOD1G93A mice (5 weeks of age) and WT controls were treated with either saline, 3 or 30 mg/kg pridopidine, by daily s.c. (subcutaneous) administration for 11 weeks (until 16 weeks of age). At the end of the experiment, lumbar spinal cords (L1-L6) were extracted, fixed, and embedded for cryosectioning.

Assay [10] concerns S1R. The note with it: by activation of the S1R (Ryskamp 2017); cited from earlier work.
In assay [11] the test system is human subjects afflicted with ALS. The note with it: periodic oral administration.

On to `Nc1nc2ccc(OC(F)(F)F)cc2s1` [riluzole, reference compound], for which the “instantaneous velocity of Qdot-BDNF particles” value is given as “did not affect the instantaneous velocities” in assay [1] (SOD1G93A MNs, 100l M (printed)) and “did not affect the instantaneous velocities” in [1] (SOD1G93A MNs, 251M (printed)). The “rate of progression of the disease” value in assay [2] is given as “slows the rate of progression of the disease”.
As for `CCCN1CCC(c2cccc(S(C)(=O)=O)c2)CC1` [pridopidine, 4-(3-(Methylsulfonyl)phenyl)-1-propylpiperidine], in assay [3] (S1R−/− MNs co-cultures, 0.1μM), the “percentage of contracting myocytes (neuromuscular activity)” value is “did not restore the neuromuscular activity”. In addition, the “percentage of contracting myocytes” value in [3] (S1R−/− MNs co-cultures, 1 μM) is “significantly lower than the percentage of contracting myocytes in untreated and treated WT cultures”; in assay [3] (SOD1G93A myocytes co-culture, 0.1μM), “increases the percentage of contracting myocytes and restores neuromuscular activity to WT levels”; in [3] (SOD1G93A myocytes co-culture, 1μM) it was “increases the percentage of contracting myocytes and restores neuromuscular activity to WT levels”. Also, the “innervation rate of muscles” value in assay [3] (muscles carrying SOD1 mutation, 1 μM) is given as “increases innervation rate of muscles carrying SOD1 mutation to near WT levels”. Also, the “expression of BDNF, D1R, GR and Akt/PI3K pathways” value in [4] is given as “activates expression”. Further, in [5], the “secretion of BDNF” value was “enhance secretion of the neuroprotective brain-derived neurotrophic factor (BDNF)”. Further, the “velocity of BDNF axonal transport” value in assay [1] (0.1 μM) and in assay [1] (1 μM) was “not able to recover these defects” in each case. Further, in assay [1] (S1R−/− MNs, any of the concentrations tested), the “axonal transport parameters of Qdot-BDNF” value is “not responsive to pridopidine”. Further, the “instantaneous velocity of Qdot-BDNF particles” value was “accelerated the instantaneous velocities” in assay [1] (SOD1G93A MNs, 0.1 μM); “accelerated the instantaneous velocities” in [1] (SOD1G93A MNs, 1 μM); “accelerated the instantaneous velocities” in [1] (WT MNs, 0.1 μM, overnight incubation). Besides, the “particle stop count (number of counted stops of Qdot-BDNF per second)” value was “reduced the number of pauses during axonal transport” in [1] (SOD1G93A MNs, 0.1 μM); “reduced the number of pauses during axonal transport” in [1] (SOD1G93A MNs, 1 μM); “reduced the number of pauses during axonal transport” in assay [1] (WT MNs, 0.1 μM). Besides, the “axonal growth: number of grooves with axons crossing into muscle compartment” value in assay [6] is “increased number of axons crossing into the distal compartment”. In assay [7] (SOD1G93A mice compared to WT, gastrocnemius, pridopidine treated), the “loss of NMJs” value is recorded as roughly 20%. Moreover, the “increase in the muscle fiber diameter” value in assay [7] (SOD1G93A mice) is given as roughly 4 μm; in [7] (WT mice) it was roughly 5 μm. In assay [8] (S1R−/− MN cultures, 0.1 μM and 1 μM), the “activation of ERK (pERK)” value is “but not in S1R−/− MN cultures”. Moreover, the “increase in pERK (pERK/ERK ratio)” value was roughly 2.9 fold in assay [8] (SOD1G93A MNs, 0.1 μM); roughly 8.5 fold in assay [8] (SOD1G93A MNs, 1 μM); roughly 3.5 fold in assay [8] (WT MNs, 0.1 μM); roughly 4 fold in assay [8] (WT MNs, 1 μM). In addition, the “reduction of number of mutant SOD1 aggregates, gray matter” value in [9] (spinal cord gray matter) was roughly 50%. Besides, the “reduction of number of mutant SOD1 aggregates, white matter” value in assay [9] (spinal cord white matter) is on record as roughly 50%. Besides, the “spine impairment and aberrant calcium signaling” value in assay [10] was “rescue spine impairment and aberrant calcium signaling”. The “symptoms of ALS in human subjects” value in assay [11] is given as “provides a clinically meaningful advantage in reducing the symptoms of ALS”.
As for `CC1=NN(c2ccccc2)C(=O)C1` [edaravone], in assay [2], the physical decline entry is listed as “slows physical decline”.

These data come from patent publication US11406625B2, “Method of treating amyotrophic lateral sclerosis with pridopidine” (PRILENIA NEUROTHERAPEUTICS LTD., priority 2017, dated 2022).
